The text below walks through data of patent US4421912A, “Cephalosporin derivatives” (Takeda Chemical Industries, Ltd., priority 1973, dated 1983).

Common to all, as to assay: Antibacterial spectra, agar dilution method
What all share (assay type): cell-based
On the technique in general: In agar dilution, organisms are placed on agar that contains the substance at set levels.

One experiment has as its system P. morganii Eb53. The settings on record: Morganella morganii. The text has this: (§1) (mcg/ml, agar dilution method)
(§2) (mcg./ml., agar dilution method)

The test system of the next experiment is P. vulgaris IFO 3988. To be noted: Proteus vulgaris, IFO3988; P. vulgaris IFO 3988; agar dilution method; Table 11; read-out: Antibacterial spectra. The text has this:
(§3) |(mcg./ml., agar dilution method)

In the next experiment the test system is E. coli T-7. The settings on record: Escherichia coli.
From the text: as §3

Another experiment concerns S. aureus 1840.
From the text: (§4) (mcg/ml., agar dilution method)
as §4, §1, §2

The subject of a further experiment is E. coli 0-111. To be noted: Escherichia coli, 0111, E. coli 0-111, Table 11.
From the text: as §4, §4, §1, §2

The test system of a further experiment is S. aureus 209P. The settings on record: Staphylococcus aureus, 209P, read-out: Antibacterial spectra, S. aureus 209P, Table 11.
From the text: as §4, §4, §1, §2

For the next experiment, the system named is E. coli NIHJ JC-2. The settings on record: Escherichia coli.
From the text: as §4, §4, §1, §2

A further experiment has as its system K. pneumoniae DT. To be noted: Klebsiella pneumoniae, Table 11.
The mark [1] stands for this setting: P. morganii Eb53, agar dilution method, Table 11, read-out: Antibacterial spectra.
Setting [2] is: T7, E. coli T-7, agar dilution method, Table 11, read-out: Antibacterial spectra.
Where [3] appears, read: Staphylococcus aureus, 1840, read-out: Antibacterial spectra, S. aureus 1840, Table 11.
[4] abbreviates: NIHJJC2, read-out: Antibacterial spectra, E. coli NIHJ JC-2, Table 11.
The mark [5] stands for this setting: NIHJJC2, E. coli NIHJ JC-2, Table 11, read-out: Antibacterial spectra.
The mark [6] stands for this setting: EB53, read-out: Antibacterial spectra.

SMILES strings stand for the structures. ≈ marks a conversion by molar mass, not a printed value. Read-outs that look alike come from different tables or passages of the source.

Take `Nc1nc(CC(=O)NC2C(=O)N3C(C(=O)O)=C(CSc4nnc(N)s4)CSC23)cs1` (stereo not drawn) [Compound 4]: the MIC with P. morganii Eb53 (setting [1]) turned out to be 50 µg/mL (≈ 103 µM); with P. vulgaris IFO 3988, 0.2 µg/mL (≈ 0.412 µM); in the experiment on E. coli T-7 (setting [2]) it was 100 µg/mL (≈ 206 µM); in the experiment with S. aureus 1840 (setting [3]) it was 0.78 µg/mL (≈ 1.61 µM); in the experiment on E. coli 0-111 it was 0.1 µg/mL (≈ 0.206 µM); with S. aureus 209P, 0.2 µg/mL (≈ 0.412 µM). Besides, the MIC in the experiment on E. coli NIHJ JC-2 (setting [4]) turned out to be 0.78 µg/mL (≈ 1.61 µM); in the experiment on K. pneumoniae DT, 0.2 µg/mL (≈ 0.412 µM).

Turning to `Cc1cnc(SCC2=C(C(=O)O)N3C(=O)C(NC(=O)Cc4csc(N)n4)C3SC2)nc1N` (stereo not drawn) [Compound 32], the MIC in the experiment with P. morganii Eb53 (setting [1]) came out at 100 µg/mL (≈ 203 µM); with P. vulgaris IFO 3988 it was 0.78 µg/mL (≈ 1.58 µM); in the experiment on E. coli T-7 (setting [2]), 50 µg/mL (≈ 101 µM); in the experiment on S. aureus 1840 (setting [3]), 1.56 µg/mL (≈ 3.16 µM); against E. coli 0-111, 0.78 µg/mL (≈ 1.58 µM); with S. aureus 209P, 0.2 µg/mL (≈ 0.405 µM). Also, the MIC with E. coli NIHJ JC-2 (setting [5]) came to 1.56 µg/mL (≈ 3.16 µM); in the experiment on K. pneumoniae DT, 0.39 µg/mL (≈ 0.79 µM).

As to `CN(C)CCn1nnnc1SCC1=C(C(=O)O)N2C(=O)C(NC(=O)Cc3csc(N)n3)C2SC1` (stereo not drawn) [Compound 28], the MIC in the experiment with P. morganii Eb53 (setting [6]) was no more than 0.2 µg/mL; in the experiment on P. vulgaris IFO 3988, 0.78 µg/mL (≈ 1.48 µM); in the experiment with E. coli T-7 (setting [2]) it was 3.13 µg/mL (≈ 5.95 µM); in the experiment on S. aureus 1840 (setting [3]), 1.56 µg/mL (≈ 2.97 µM); in the experiment on E. coli 0-111, no more than 0.2 µg/mL; in the experiment with S. aureus 209P, 0.39 µg/mL (≈ 0.742 µM). For the same molecule, the MIC in the experiment on E. coli NIHJ JC-2 (setting [4]) is 0.39 µg/mL (≈ 0.742 µM); with K. pneumoniae DT, no more than 0.2 µg/mL.

As to `CSCc1nnc(SCC2=C(C(=O)O)N3C(=O)C(NC(=O)Cc4csc(N)n4)C3SC2)s1` (stereo not drawn) [Compound 24], the MIC in the experiment on P. morganii Eb53 (setting [1]) was 25 µg/mL (≈ 47.1 µM); with P. vulgaris IFO 3988, 0.39 µg/mL (≈ 0.735 µM); in the experiment with E. coli T-7 (setting [2]) it was 25 µg/mL (≈ 47.1 µM); in the experiment with S. aureus 1840 (setting [3]), 0.78 µg/mL (≈ 1.47 µM); against E. coli 0-111 it was 0.39 µg/mL (≈ 0.735 µM); in the experiment on S. aureus 209P, no more than 0.2 µg/mL. Also, the MIC is 1.56 µg/mL (≈ 2.94 µM) in the experiment with E. coli NIHJ JC-2 (setting [5]) and no more than 0.2 µg/mL against K. pneumoniae DT.

With `Nc1nc(CC(=O)NC2C(=O)N3C(C(=O)O)=C(CSc4nc(CC(=O)O)cs4)CSC23)cs1` (stereo not drawn) [Compound 30], the MIC with P. morganii Eb53 (setting [1]) stood at 50 µg/mL (≈ 94.8 µM); with P. vulgaris IFO 3988 it was 0.2 µg/mL (≈ 0.379 µM); with E. coli T-7 (setting [2]), 100 µg/mL (≈ 190 µM); in the experiment on S. aureus 1840 (setting [3]), 1.56 µg/mL (≈ 2.96 µM); against E. coli 0-111, 0.39 µg/mL (≈ 0.739 µM); in the experiment with S. aureus 209P it was 0.39 µg/mL (≈ 0.739 µM). Moreover, the MIC is 1.56 µg/mL (≈ 2.96 µM) in the experiment on E. coli NIHJ JC-2 (setting [5]) and less than 0.05 µg/mL in the experiment on K. pneumoniae DT.

Consider `Nc1nc(CC(=O)NC2C(=O)N3C(C(=O)[O-])=C(CSc4nnc(SCCO)s4)CS[C@H]23)cs1.[Na+]` (stereo partly drawn) [Compound 6, sodium 7-[2-(2-aminothiazol-4-yl)acetamido]-3-[2-(2-hydroxyethylthio)1,3,4-thiadiazol-5-yl)thiomethyl-3-cephem-4-carboxylate], for which the MIC with P. morganii Eb53 (setting [6]) was 6.25 µg/mL; in the experiment with P. vulgaris IFO 3988, 0.39 µg/mL; in the experiment with E. coli T-7 (T7, read-out: Antibacterial spectra) it was 12.5 µg/mL; in the experiment on S. aureus 1840 (setting [3]), 0.78 µg/mL; in the experiment with E. coli 0-111, no more than 0.2 µg/mL; in the experiment with S. aureus 209P, no more than 0.2 µg/mL. Also, the MIC in the experiment with E. coli NIHJ JC-2 (setting [4]) is 0.78 µg/mL; with K. pneumoniae DT, no more than 0.2 µg/mL.

With `NC(=O)Cn1nnnc1SCC1=C(C(=O)O)N2C(=O)C(NC(=O)Cc3csc(N)n3)C2SC1` (stereo not drawn) [Compound 29], the MIC in the experiment on P. morganii Eb53 (setting [6]) is no more than 0.2 µg/mL; in the experiment with P. vulgaris IFO 3988 it was no more than 0.2 µg/mL; with E. coli T-7 (setting [2]) it was 3.13 µg/mL (≈ 6.12 µM); in the experiment with S. aureus 1840 (setting [3]), 1.56 µg/mL (≈ 3.05 µM); against E. coli 0-111 it was no more than 0.2 µg/mL; in the experiment on S. aureus 209P, 0.78 µg/mL (≈ 1.52 µM). In addition, the MIC with E. coli NIHJ JC-2 (setting [4]) was 0.39 µg/mL (≈ 0.762 µM); with K. pneumoniae DT it was no more than 0.2 µg/mL.

As to `Nc1nc(CC(=O)NC2C(=O)N3C(C(=O)O)=C(CSc4nnc(NCCS(=O)(=O)O)s4)CSC23)cs1` (stereo not drawn) [Compound 22], the MIC was 0.78 µg/mL (≈ 1.31 µM) in the experiment with P. morganii Eb53 (setting [6]); no more than 0.2 µg/mL in the experiment with P. vulgaris IFO 3988; 25 µg/mL (≈ 42.1 µM) with E. coli T-7 (setting [2]); 3.13 µg/mL (≈ 5.27 µM) in the experiment on S. aureus 1840 (Staphylococcus aureus, S. aureus 1840, Table 11, read-out: Antibacterial spectra); no more than 0.2 µg/mL in the experiment with E. coli 0-111; 0.78 µg/mL (≈ 1.31 µM) with S. aureus 209P. The MIC in the experiment with E. coli NIHJ JC-2 (setting [4]) is 0.78 µg/mL (≈ 1.31 µM); against K. pneumoniae DT, no more than 0.2 µg/mL.

`CS(=O)(=O)Cc1nnc(SCC2=C(C(=O)O)N3C(=O)C(NC(=O)Cc4csc(N)n4)C3SC2)s1` (stereo not drawn) [Compound 25]: the MIC in the experiment on P. morganii Eb53 (setting [1]) is 25 µg/mL (≈ 44.4 µM); in the experiment with P. vulgaris IFO 3988, 0.39 µg/mL (≈ 0.693 µM); in the experiment on E. coli T-7 (setting [2]) it was 100 µg/mL (≈ 178 µM); with S. aureus 1840 (setting [3]) it was 0.78 µg/mL (≈ 1.39 µM); against E. coli 0-111 it was no more than 0.2 µg/mL; in the experiment with S. aureus 209P, 0.39 µg/mL (≈ 0.693 µM). In addition, the MIC was 0.39 µg/mL (≈ 0.693 µM) in the experiment on E. coli NIHJ JC-2 (setting [4]) and no more than 0.2 µg/mL against K. pneumoniae DT.
